This passage reports TD50 and carcinogen call results from PubChem BioAssay AID1745844 (Carcinogenic Potency Database (CPDB), 2022).

Each structure is given as a SMILES string. Where “and” joins values, the source holds several entries; their conditions need not be identical. Equal entries are not always repeated. Calls of active or inactive are those of the source. No rule for the calls is given here.

The term TD50 denotes the 50% point of the dose-response relation for the toxic effect studied.

In the data set the test system is rodent lifetime carcinogenesis bioassay, tumor incidence TD50. The data set is described as follows: chronic cancer bioassays in animals – CPDB, compiled studies (AID 1745844).

Turning to `CCOC(=O)c1ccc(N)cc1`, the TD50 runs as follows: (rat, strain ACI, both sexes, in feed, site: colorectum, lesion: papilloma, dosed 94 weeks, study length 94 weeks) 331 mg/kg/day; (rat, strain ACI, both sexes, in feed, site: colorectum, lesion: squamous-cell carcinoma, dosed 94 weeks, study length 94 weeks) 1760 mg/kg/day; (rat, strain ACI, both sexes, in feed, site: intestine, lesion: several types, types named in the paper, dosed 94 weeks, study length 94 weeks) 191 mg/kg/day; (rat, strain ACI, females, in feed, site: cecum, lesion: adenoma, dosed 68 weeks, study length 68 weeks) 1270 mg/kg/day; (rat, strain ACI, females, in feed, site: colorectum, lesion: adenocarcinoma, dosed 68 weeks, study length 68 weeks) 373 mg/kg/day; (rat, strain ACI, females, in feed, site: colorectum, lesion: adenoma, dosed 68 weeks, study length 68 weeks) 977 mg/kg/day. In addition, the TD50 was 219 mg/kg/day (rat, strain ACI, females, in feed, site: colorectum, lesion: papilloma, dosed 68 weeks, study length 68 weeks); 1760 mg/kg/day (rat, strain ACI, females, in feed, site: colorectum, lesion: squamous-cell carcinoma, dosed 68 weeks, study length 68 weeks); 2560 mg/kg/day (inactive) and 1640 mg/kg/day (inactive) (rat, strain ACI, females, in feed, site: urinary bladder, lesion: one or several types, types not named, dosed 68 weeks, study length 68 weeks); 4250 mg/kg/day (inactive) (rat, strain ACI, males, in feed, site: cecum, lesion: adenoma, dosed 68 weeks, study length 68 weeks); 182 mg/kg/day (rat, strain ACI, males, in feed, site: colorectum, lesion: adenocarcinoma, dosed 68 weeks, study length 68 weeks); 1700 mg/kg/day (rat, strain ACI, males, in feed, site: colorectum, lesion: adenoma, dosed 68 weeks, study length 68 weeks). In addition, the TD50 (rat, strain ACI, males, in feed, site: colorectum, lesion: squamous-cell carcinoma, dosed 68 weeks, study length 68 weeks) is 2050 mg/kg/day.

With `CC(C)Oc1ccc(Nc2ccccc2)cc1`, the TD50 (mouse, strain B6AKF1, females, oral dosing, site: any site (literature study), lesion: several types, types named in the paper, dosed 76 weeks, study length 76 weeks) was 1200 mg/kg/day (inactive); the TD50 (mouse, strain B6AKF1, females, oral dosing, site: liver, lesion: angioma, dosed 76 weeks, study length 76 weeks) is 2650 mg/kg/day (inactive); the TD50 (mouse, strain B6AKF1, males, oral dosing, site: any site (literature study), lesion: several types, types named in the paper, dosed 76 weeks, study length 76 weeks) was 985 mg/kg/day (inactive); the TD50 (mouse, strain B6AKF1, males, oral dosing, site: liver, lesion: hepatoma, dosed 76 weeks, study length 76 weeks) was 1130 mg/kg/day (inactive); the TD50 (mouse, strain B6AKF1, males, oral dosing, site: lung, lesion: adenoma, dosed 76 weeks, study length 76 weeks) is 2180 mg/kg/day (inactive); the TD50 (mouse, strain B6C3F1, females, oral dosing, site: any site (literature study), lesion: several types, types named in the paper, dosed 76 weeks, study length 76 weeks) is 1290 mg/kg/day (inactive). For the same compound, the TD50 (mouse, strain B6C3F1, females, oral dosing, site: liver, lesion: hepatoma, dosed 76 weeks, study length 76 weeks) is 2650 mg/kg/day (inactive); the TD50 (mouse, strain B6C3F1, males, oral dosing, site: any site (literature study), lesion: several types, types named in the paper, dosed 76 weeks, study length 76 weeks) was 300 mg/kg/day (inactive); the TD50 (mouse, strain B6C3F1, males, oral dosing, site: liver, lesion: hepatoma, dosed 76 weeks, study length 76 weeks) is 679 mg/kg/day (inactive); the TD50 (mouse, strain B6C3F1, males, oral dosing, site: lung, lesion: adenoma, dosed 76 weeks, study length 76 weeks) was 2180 mg/kg/day (inactive). In addition, the carcinogen call is, setting by setting: (mouse, strain B6AKF1, females, oral dosing, site: lung, lesion: adenoma, dosed 76 weeks, study length 76 weeks) “negative (inactive)”; (mouse, strain B6C3F1, females, oral dosing, site: lung, lesion: several types, types named in the paper, dosed 76 weeks, study length 76 weeks) “negative (inactive)”.

With `O=C1c2ccccc2CN2C(=O)c3ccccc3CN12`, the TD50 (mouse, strain BALB/cLacDp, females, in feed, site: liver, lesion: angioma, dosed 80 weeks, study length 119 weeks) was 7130 mg/kg/day; the TD50 (mouse, strain BALB/cLacDp, females, in feed, site: liver, lesion: angiosarcoma, dosed 80 weeks, study length 119 weeks) is 852 mg/kg/day; the TD50 (mouse, strain BALB/cLacDp, females, in feed, site: liver, lesion: hepatocellular adenoma, dosed 80 weeks, study length 119 weeks) is 1150 mg/kg/day; the TD50 (mouse, strain BALB/cLacDp, females, in feed, site: liver, lesion: hepatocellular carcinoma, dosed 80 weeks, study length 119 weeks) is 3540 mg/kg/day; the TD50 (mouse, strain BALB/cLacDp, females, in feed, site: lung, lesion: several types, types named in the paper, dosed 80 weeks, study length 119 weeks) is 269 mg/kg/day (inactive); the TD50 (mouse, strain BALB/cLacDp, males, in feed, site: liver, lesion: angioma, dosed 80 weeks, study length 119 weeks) is 1370 mg/kg/day. Also, the TD50 was 879 mg/kg/day (mouse, strain BALB/cLacDp, males, in feed, site: liver, lesion: angiosarcoma, dosed 80 weeks, study length 119 weeks) and 412 mg/kg/day (inactive) (mouse, strain BALB/cLacDp, males, in feed, site: lung, lesion: several types, types named in the paper, dosed 80 weeks, study length 119 weeks).

`CC(C)CCCCCCOC(=O)c1ccccc1C(=O)OCCCCCCC(C)C`: the TD50 is 3340 mg/kg/day (mouse, strain B6C3F1, females, in feed, site: liver, lesion: hepatocellular carcinoma, dosed 78 weeks, study length 104 weeks); 5240 mg/kg/day (mouse, strain B6C3F1, females, in feed, site: liver, lesion: hepatocellular carcinoma, dosed 79 weeks, study length 79 weeks); 2620 mg/kg/day (mouse, strain B6C3F1, females, in feed, site: liver, lesion: hepatocellular carcinoma, dosed 104 weeks, study length 104 weeks); 2860 mg/kg/day (mouse, strain B6C3F1, females, in feed, site: liver, lesion: several types, types named in the paper, dosed 79 weeks, study length 79 weeks); 1440 mg/kg/day (mouse, strain B6C3F1, females, in feed, site: liver, lesion: several types, types named in the paper, dosed 104 weeks, study length 104 weeks); 4100 mg/kg/day (mouse, strain B6C3F1, males, in feed, site: liver, lesion: hepatocellular carcinoma, dosed 78 weeks, study length 104 weeks). Moreover, the TD50 was 1460 mg/kg/day (mouse, strain B6C3F1, males, in feed, site: liver, lesion: hepatocellular carcinoma, dosed 79 weeks, study length 79 weeks); 2920 mg/kg/day (mouse, strain B6C3F1, males, in feed, site: liver, lesion: hepatocellular carcinoma, dosed 104 weeks, study length 104 weeks); 1460 mg/kg/day (mouse, strain B6C3F1, males, in feed, site: liver, lesion: several types, types named in the paper, dosed 79 weeks, study length 79 weeks); 1590 mg/kg/day (mouse, strain B6C3F1, males, in feed, site: liver, lesion: several types, types named in the paper, dosed 104 weeks, study length 104 weeks); 1140 mg/kg/day (rat, strain Fischer 344, females, in feed, site: all sites, lesion: mononuclear-cell leukemia, dosed 78 weeks, study length 104 weeks); 1690 mg/kg/day (rat, strain Fischer 344, females, in feed, site: all sites, lesion: mononuclear-cell leukemia, dosed 79 weeks, study length 79 weeks). Further, the TD50 (rat, strain Fischer 344, females, in feed, site: all sites, lesion: mononuclear-cell leukemia, dosed 104 weeks, study length 104 weeks) is 458 mg/kg/day and 1150 mg/kg/day; the TD50 (rat, strain Fischer 344, females, in feed, site: liver, lesion: hepatocellular adenoma, dosed 79 weeks, study length 79 weeks) was 3440 mg/kg/day; the TD50 (rat, strain Fischer 344, females, in feed, site: liver, lesion: hepatocellular carcinoma, dosed 78 weeks, study length 104 weeks) turned out to be 14300 mg/kg/day; the TD50 (rat, strain Fischer 344, females, in feed, site: liver, lesion: hepatocellular carcinoma, dosed 104 weeks, study length 104 weeks) is 7980 mg/kg/day; the TD50 (rat, strain Fischer 344, males, in feed, site: all sites, lesion: mononuclear-cell leukemia, dosed 78 weeks, study length 104 weeks) was 445 mg/kg/day; the TD50 (rat, strain Fischer 344, males, in feed, site: kidney, lesion: tubular carcinoma, dosed 78 weeks, study length 104 weeks) is 2960 mg/kg/day. The TD50 is 17200 mg/kg/day (rat, strain Fischer 344, males, in feed, site: kidney, lesion: tubular carcinoma, dosed 104 weeks, study length 104 weeks); 9740 mg/kg/day (rat, strain Fischer 344, males, in feed, site: liver, lesion: hepatocellular carcinoma, dosed 78 weeks, study length 104 weeks); 2750 mg/kg/day (rat, strain Fischer 344, males, in feed, site: liver, lesion: hepatocellular carcinoma, dosed 79 weeks, study length 79 weeks); 2640 mg/kg/day (rat, strain Fischer 344, males, in feed, site: liver, lesion: hepatocellular carcinoma, dosed 104 weeks, study length 104 weeks).

As for `O=C1C=C(N2CC2)C(=O)C(N2CC2)=C1N1CC1`, the TD50 reads like this: (rat, strain BR 46, males, i.v., site: any site (literature study), lesion: benign tumor, dosed 52 weeks, study length 104 weeks) 0.032 mg/kg/day; (rat, strain BR 46, males, i.v., site: any site (literature study), lesion: malignant tumor, dosed 52 weeks, study length 104 weeks) 0.00677 mg/kg/day; (rat, strain BR 46, males, i.v., site: any site (literature study), lesion: several types, types named in the paper, dosed 52 weeks, study length 104 weeks) 0.00504 mg/kg/day; (rat, strain BR 46, males, i.v., site: liver, lesion: liver-cell carcinoma, dosed 52 weeks, study length 104 weeks) 0.0653 mg/kg/day.
